Test results from patent US12054498B2, “Heteroaromatic macrocyclic ether chemotherapeutic agents” (Nuvalent, Inc., priority 2020, dated 2024).

Legend:
Format in all cases: cell-based
[1] = target: T1, Ba/F3 cells CD74-ROS1 G2032R (Homo sapiens, UniProt P08922, G2032R); assay: Ba/F3 cell proliferation assay, CD74-ROS1 G2032R; settings: 72 hours, CellTiter-Glo
T1 construct: fusion of the C-terminus of ROS1 with the N-terminus of various partner proteins; host or cells: Ba/F3 (RIKEN), retroviral pMSCV-puro; the other entry of the earlier key: CD74 (P04233, HLA class II histocompatibility antigen gamma chain)
T1 sequence (P08922 1883-2347 G2032R limits assumed): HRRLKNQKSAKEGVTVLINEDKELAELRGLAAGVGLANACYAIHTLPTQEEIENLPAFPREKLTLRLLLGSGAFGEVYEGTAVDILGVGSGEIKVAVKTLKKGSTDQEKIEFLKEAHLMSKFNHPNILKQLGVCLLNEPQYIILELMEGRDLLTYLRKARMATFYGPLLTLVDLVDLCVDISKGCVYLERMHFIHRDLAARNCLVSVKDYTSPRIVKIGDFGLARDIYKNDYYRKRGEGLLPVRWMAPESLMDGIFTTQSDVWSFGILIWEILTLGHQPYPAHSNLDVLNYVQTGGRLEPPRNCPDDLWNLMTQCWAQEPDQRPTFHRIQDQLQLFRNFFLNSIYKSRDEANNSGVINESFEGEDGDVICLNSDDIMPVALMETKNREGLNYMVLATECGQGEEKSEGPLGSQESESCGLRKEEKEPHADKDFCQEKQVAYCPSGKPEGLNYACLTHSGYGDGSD
Experimental: (§1) The virus was used to infect Ba/F3 cells (RIKEN) at multiplicity of infection=1 for 1 day. Infected cells were rescued in media (RPMI-1640 with 10% fetal bovine serum and 1% streptomycin and penicillin) supplemented with mouse IL-3 (10 ng/mL) for 2 days, and stable cell lines were selected by IL-3 withdrawal and puromycin (0.8 μg/mL) for 7 days. Monoclones were selected by single-cell dilution in IL-3-free medium containing puromycin (0.8 μg/mL).
(§2) Cell Proliferation Assay Stable cells were plated at 1,000 cells/well (40 μL) in a 384-well plate for 1 day.
(§3) Test compounds (40 nL) were then added in a 3-fold dilution series using the TECAN EVO200 liquid handler and incubated for 72 hours. Plates were equilibrated at room temperature for 15 minutes followed by addition of 40 μL CellTiter-Glo reagent (Promega).
(§4) Luminescence was measured on a plate reader. Half-maximal inhibitory concentration (IC50) was calculated from percent inhibition and inhibitor concentration using four-parameter logistic regression. […] (nd=not determined).

[2] = target: T2, Ba/F3 cells EML4-ALK wt (variant 1) (Homo sapiens, UniProt Q9UM73); assay: Ba/F3 cell proliferation assay, EML4-ALK wt (variant 1); settings: 72 hours, CellTiter-Glo
T2 construct: echinoderm microtubule-associated protein-like 4 (EML4) gene and the ALK tyrosine kinase domain; host or cells: Ba/F3 (RIKEN), retroviral pMSCV-puro; the other entry of the earlier key: EML4 (Q9HC35, Echinoderm microtubule-associated protein-like 4)
T2 sequence (Q9UM73 with tags, fused parts or gaps): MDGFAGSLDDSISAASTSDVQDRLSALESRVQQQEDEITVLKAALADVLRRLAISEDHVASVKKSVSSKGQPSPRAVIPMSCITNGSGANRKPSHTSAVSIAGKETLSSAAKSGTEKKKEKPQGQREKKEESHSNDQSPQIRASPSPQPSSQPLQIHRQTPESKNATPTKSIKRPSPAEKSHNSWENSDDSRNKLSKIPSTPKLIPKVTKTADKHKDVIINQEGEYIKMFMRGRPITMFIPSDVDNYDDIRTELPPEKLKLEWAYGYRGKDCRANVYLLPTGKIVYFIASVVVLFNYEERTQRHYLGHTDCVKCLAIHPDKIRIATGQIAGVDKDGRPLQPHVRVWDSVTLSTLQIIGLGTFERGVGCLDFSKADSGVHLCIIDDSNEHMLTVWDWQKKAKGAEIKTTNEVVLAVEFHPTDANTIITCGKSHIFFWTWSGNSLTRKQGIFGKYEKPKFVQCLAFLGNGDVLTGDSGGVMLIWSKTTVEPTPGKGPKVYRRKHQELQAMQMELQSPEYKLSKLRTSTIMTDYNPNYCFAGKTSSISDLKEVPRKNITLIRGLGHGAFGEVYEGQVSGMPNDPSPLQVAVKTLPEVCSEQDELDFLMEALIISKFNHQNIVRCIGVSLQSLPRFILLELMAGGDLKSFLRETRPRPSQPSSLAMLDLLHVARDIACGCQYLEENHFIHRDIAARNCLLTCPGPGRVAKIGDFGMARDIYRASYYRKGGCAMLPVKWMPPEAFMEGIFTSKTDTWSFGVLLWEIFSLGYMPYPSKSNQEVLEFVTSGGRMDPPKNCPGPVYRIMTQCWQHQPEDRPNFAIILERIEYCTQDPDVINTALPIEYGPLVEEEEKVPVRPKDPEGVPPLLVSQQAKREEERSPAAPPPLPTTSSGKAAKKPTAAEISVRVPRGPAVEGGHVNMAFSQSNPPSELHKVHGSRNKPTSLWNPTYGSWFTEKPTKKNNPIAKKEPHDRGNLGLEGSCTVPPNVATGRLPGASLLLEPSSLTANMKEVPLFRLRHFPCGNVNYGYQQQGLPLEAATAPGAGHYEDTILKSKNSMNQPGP
Source text: (§5) Genes encoding CD74-ROS1 wild-type (wt), CD74-ROS1 G2032R, CD74-ROS1 S1986F, CD74-ROS1 L2026M, CD74-ROS1 D2033N, EML4-ALK wt (variant 1), EML4-ALK G1202R (variant 1), EML4-ALK L1196M/G1202R (variant 1), EML4-ALK G1202R/G1269A (variant 1), EML4-ALK G1202R/L1198F (variant 1), and TPM3-TRKA were synthesized at GeneRay, cloned into the retroviral construct pMSCV-puro (Biovector), and packaged into retroviral particles. The virus was used to infect Ba/F3 cells (RIKEN) at multiplicity of infection=1 for 1 day. Infected cells were rescued in media (RPMI-1640 with 10% fetal bovine serum and 1% streptomycin and penicillin) supplemented with mouse IL-3 (10 ng/mL) for 2 days, and stable cell lines were selected by IL-3 withdrawal and puromycin (0.8 μg/mL) for 7 days. Monoclones were selected by single-cell dilution in IL-3-free medium containing puromycin (0.8 μg/mL). Transformation of desired genes was confirmed by Sanger sequencing and western blot using the following antibodies: ROS1 (CST #3287), ALK (CST #3633), and pan-TRK (Abcam #76291).
as §2, §3, §4

[3] = target: T3, Ba/F3 cells EML4-ALK L1196M/G1202R (variant 1) (Homo sapiens, UniProt Q9UM73, G1202R/L1196M); assay: Ba/F3 cell proliferation assay, EML4-ALK L1196M/G1202R (variant 1); settings: 72 hours, CellTiter-Glo
T3 construct: echinoderm microtubule-associated protein-like 4 (EML4) gene and the ALK tyrosine kinase domain; host or cells: Ba/F3 (RIKEN), retroviral pMSCV-puro; the other entry of the earlier key: EML4 (Q9HC35, Echinoderm microtubule-associated protein-like 4)
T3 sequence (Q9UM73 with tags, fused parts or gaps L1196M/G1202R): as the sequence (Q9UM73 with tags, fused parts or gaps) above, with L635M, G641R counted along it
Source text: as §5, §2, §3, §4

Ba/F3 cells TPM3-TRKA = target: T4, Ba/F3 cells TPM3-TRKA (Homo sapiens, UniProt P04629); assay: Ba/F3 cell proliferation assay, TPM3-TRKA; settings: 72 hours, CellTiter-Glo, read-out: TPM3-NTRK1-wt IC50
T4 construct: host or cells: Ba/F3 (RIKEN), retroviral pMSCV-puro; the other entry of the earlier key: TPM3 (P06753, Tropomyosin alpha-3 chain)
T4 sequence (P04629 510-796 limits assumed): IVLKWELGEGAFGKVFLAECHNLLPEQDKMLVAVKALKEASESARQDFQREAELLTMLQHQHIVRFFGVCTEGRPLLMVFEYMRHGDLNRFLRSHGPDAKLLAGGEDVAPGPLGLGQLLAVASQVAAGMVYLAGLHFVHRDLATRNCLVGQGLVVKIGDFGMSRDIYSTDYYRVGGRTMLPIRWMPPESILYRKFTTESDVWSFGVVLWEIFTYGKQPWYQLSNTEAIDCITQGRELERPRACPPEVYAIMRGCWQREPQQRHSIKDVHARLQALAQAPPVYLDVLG
Source text: as §5, §2, §3, §4

[4] = test system: TPM3-NTRK1-wt IC50 / primary target IC50 (e.g. CD74-ROS1-wt); assay: TRKA selectivity in Ba/F3 cells (TRKA potency divided by primary target potency); settings: for TPM3-NTRK1-wt/CD74-ROS1-G2032R selectivity ratio: TRKA potency / CD74-ROS1-G2032R potency; for TPM3-NTRK1-wt/EML4-ALK-L1196M-G1202R selectivity ratio: TRKA potency / EML4-ALK-L1196M-G1202R potency; for TPM3-NTRK1-wt/EML4-ALK-wt selectivity ratio: TRKA potency / EML4-ALK-wt potency; for TPM3-NTRK1-wt/CD74-ROS1-wt selectivity ratio: TRKA potency / CD74-ROS1-wt potency
Experimental: TRKA selectivity was calculated by dividing a compound's TRKA potency by its primary target potency (e.g. TPM3-NTRK1-wt IC50/CD74-ROS1-wt IC50). Compound selectivity can be interpreted by binning ratio values: bin A for very high selectivity, ratio >30-fold; bin B for high selectivity, ratio >10-fold; bin C for moderate selectivity, ratio ≥1; and bin D for low selectivity, ratio <1. […] (nd=not determined).

[5] = target: T5, Ba/F3 cells CD74-ROS1 wild-type (wt) (Homo sapiens, UniProt P08922); assay: Ba/F3 cell proliferation assay, CD74-ROS1 wild-type; settings: 72 hours, CellTiter-Glo
T5 construct: fusion of the C-terminus of ROS1 with the N-terminus of various partner proteins; host or cells: Ba/F3 (RIKEN), retroviral pMSCV-puro; the other entry of the earlier key: CD74 (P04233, HLA class II histocompatibility antigen gamma chain)
T5 sequence (P08922 1883-2347 limits assumed): as the sequence (P08922 1883-2347 G2032R limits assumed) above, with R150G counted along it
Experimental: as §1, §2, §3, §4

Compound	IC50 [1] [nM]	IC50 [2] [nM]	IC50 [3] [nM]	IC50 (Ba/F3 cells TPM3-TRKA) [nM]	TPM3-NTRK1-wt/CD74-ROS1-G2032R selectivity ratio [4]	TPM3-NTRK1-wt/EML4-ALK-L1196M-G1202R selectivity ratio [4]	TPM3-NTRK1-wt/EML4-ALK-wt selectivity ratio [4]	IC50 [5] [nM]	TPM3-NTRK1-wt/CD74-ROS1-wt selectivity ratio [4]
CCn1ncc2c1-c1cnc(N)c(c1)O[C@H](C)c1cc(F)ccc1-c1ncn(C)c1C2 [Example 6, (19R)-3-ethyl-16-fluoro-9,19-dimethyl-20-oxa-3,4,9,11,23-pentaazapentacyclo[19.3.1.0^2,^6.0^8,^12.0^13,^18]pentacosa-1(24),2(6),4,8(12),10,13,15,17,21(25),22-decaen-22-amine]	0.1 to 50	0.1 to 50	0.1 to 50	50 to 500	A (bin A for very high selectivity, ratio >30-fold)	C (bin C for moderate selectivity, ratio ≥1)	A (bin A for very high selectivity, ratio >30-fold)		
CCn1ncc2c1-c1cnc(N)c(c1)O[C@H](C)c1cc(F)ccc1-c1c(ncn1C)C2 [Example 11, (19R)-3-ethyl-16-fluoro-11,19-dimethyl-20-oxa-3,4,9,11,23-pentaazapentacyclo[19.3.1.0^2,^6.0^8,^12.0^13,^18]pentacosa-1(24),2(6),4,8(12),9,13,15,17,21(25),22-decaen-22-amine]	0.1 to 50		50 to 500	> 500	A (bin A for very high selectivity, ratio >30-fold)	B (bin B for high selectivity, ratio >10-fold)			
CCn1ncc2c1-c1cnc(N)c(c1)OCc1cc(F)ccc1-c1ccnn1C2 [Example 17, 3-ethyl-16-fluoro-20-oxa-3,4,8,9,23-pentaazapentacyclo[19.3.1.0^2,^6.0^8,^12.0^13,^18]pentacosa-1(24),2(6),4,9,11,13,15,17,21(25),22-decaen-22-amine]	50 to 500	50 to 500	> 500	> 500	A (bin A for very high selectivity, ratio >30-fold)	C (bin C for moderate selectivity, ratio ≥1)	B (bin B for high selectivity, ratio >10-fold)	0.1 to 50	A (bin A for very high selectivity, ratio >30-fold)
CCn1ncc2c1-c1cnc(N)c(c1)O[C@H](C)c1cc(F)ccc1-c1c(Cl)cnn1C2 [Example 27, (19R)-11-chloro-3-ethyl-16-fluoro-19-methyl-20-oxa-3,4,8,9,23-pentaazapentacyclo[19.3,1.0^2,^6.0^8,^12.0^13,^18]pentacosa-1(24),2(6),4,9,11,13,15,17,21(25),22-decaen-22-amine]	0.1 to 50	0.1 to 50	50 to 500	> 500	A (bin A for very high selectivity, ratio >30-fold)	C (bin C for moderate selectivity, ratio ≥1)	B (bin B for high selectivity, ratio >10-fold)		
CCc1onc2c1-c1cnc(N)c(c1)O[C@H](C)c1cc(F)ccc1-c1nn(C)nc1C2 [Example 31, (19R)-3ethyl-16-fluoro-10,19-dimethyl-4,20-dioxa-5,9,10,11,23-pentaazapentacyclo[19.3.1.0^2,^6.0^8,^12.0^13,^18]pentacosa-1(24),2,5,8,11,13,15,17,21(25),22-decaen-22-amine]	0.1 to 50		50 to 500	50 to 500	A (bin A for very high selectivity, ratio >30-fold)	C (bin C for moderate selectivity, ratio ≥1)			
CCn1nc(OC)c2c1-c1cnc(N)c(c1)O[C@H](C)c1cc(F)ccc1-c1cc(C)nn1C2 [Example 32, (19R)-3-ethyl-16-fluoro-5-methoxy-10,19-dimethyl-20-oxa-3,4,8,9,23-pentaazapentacyclo[19.3.1.0^2,^6.0^8,^12.0^13,^18]pentacosa-1(24),2(6),4,9,11,13,15,1 7,21(25),22-decaen-22-amine]	0.1 to 50	0.1 to 50	50 to 500	50 to 500	A (bin A for very high selectivity, ratio >30-fold)	C (bin C for moderate selectivity, ratio ≥1)	B (bin B for high selectivity, ratio >10-fold)	0.1 to 50	A (bin A for very high selectivity, ratio >30-fold)
C[C@H]1Oc2cc(cnc2N)-c2c(C#N)nn(C)c2Cc2ncsc2-c2ccc(F)cc21 [Example 57, (19R)-22-amino-16-fluoro-5,19-dimethyl-20-oxa-11-thia-4,5,9,23-tetraazapentacyclo[19.3.1.0^2,^6.0^8,^12.0^13,^18]pentacosa-1(24),2(6),3,8(12),9,13,15,17,21(25),22-decaene-3-carbonitrile]	0.1 to 50		50 to 500	> 500	A (bin A for very high selectivity, ratio >30-fold)	C (bin C for moderate selectivity, ratio ≥1)			
Cc1nc2c(s1)-c1ccc(F)cc1[C@@H](C)Oc1cc(cnc1N)-c1c(C#N)nn(C)c1C2 [Example 68, (19R)-22-amino-16-fluoro-5,10,19-trimethyl-20-oxa-11-thia-4,5,9,23-tetraazapentacyclo[19.3.1.0^2,^6.0^8,^12.0^13,^18]pentacosa-1(24),2(6),3,8(12),9,13,15,17,21(25),22-decaene-3-carbonitrile]	0.1 to 50		50 to 500	> 500	A (bin A for very high selectivity, ratio >30-fold)	C (bin C for moderate selectivity, ratio ≥1)			
Cc1nn(CC2CC2)c2c1Cc1nccnc1-c1ccc(F)cc1[C@@H](C)Oc1cc-2cnc1N [Example 77, (20R)-3-(cyclopropylmethyl)-17-fluoro-5,20-dimethyl-21-oxa-3,4,9,12,24-pentaazapentacyclo[20.3.1.0^2,^6.0^8,^13.0^14,^19]hexacosa-1(25),2(6),4,8(13),9,11,14,16,18,22(26),23-undecaen-23-amine]	0.1 to 50	0.1 to 50	0.1 to 50	> 500	A (bin A for very high selectivity, ratio >30-fold)	A (bin A for very high selectivity, ratio >30-fold)	A (bin A for very high selectivity, ratio >30-fold)		
